# Tested on: Mycobacterium tuberculosis
# Experiment: Antibacterial activity against Mycobacterium bovis BCG by microplate alamar blue assay
# Assay type: functional
# Details: variant bovis BCG
row,Structure (SMILES),MIC [µg/mL]
1,CCCCCC[C@H](CN1CCC(COc2cccc(/C(=N\OC)c3ccc(Cl)cc3)c2)CC1)OC(N)=O,2.95
2,CCCCCC[C@H](CN1CCC(COc2cccc(C(=O)c3ccc(Cl)cc3)c2)CC1)OC(N)=O,3
